Measured values taken from patent US20050100983A1, “Cell-free methods for identifying compounds that affect toll-like receptor 9 (TLR9) signaling” (Coley Pharmaceutical GmbH, priority 2003, published 2005).
Ends that are not written are not given here. * marks the point of attachment. X1 = 2,3‑bis(palmitoyloxy)‑(2RS)‑propyl, CCCCCCCCCCCCCCCC(=O)OCC(C*)OC(=O)CCCCCCCCCCCCCCC; Palmitoyl = CCCCCCCCCCCCCCCC(=O)*

What was measured:
[1] = molecular target: T1, mTLR2ect (TLR2-Pam3Cys interaction) (Mus musculus, UniProt Q9QUN7); test: SPR biosensor analysis of TLR2-Pam3Cys binding; design: species or system murine; conditions: PHC as reference
T1 construct: mTLR2ect (aa 1-587); made in house
T1 sequence (Q9QUN7 25-587): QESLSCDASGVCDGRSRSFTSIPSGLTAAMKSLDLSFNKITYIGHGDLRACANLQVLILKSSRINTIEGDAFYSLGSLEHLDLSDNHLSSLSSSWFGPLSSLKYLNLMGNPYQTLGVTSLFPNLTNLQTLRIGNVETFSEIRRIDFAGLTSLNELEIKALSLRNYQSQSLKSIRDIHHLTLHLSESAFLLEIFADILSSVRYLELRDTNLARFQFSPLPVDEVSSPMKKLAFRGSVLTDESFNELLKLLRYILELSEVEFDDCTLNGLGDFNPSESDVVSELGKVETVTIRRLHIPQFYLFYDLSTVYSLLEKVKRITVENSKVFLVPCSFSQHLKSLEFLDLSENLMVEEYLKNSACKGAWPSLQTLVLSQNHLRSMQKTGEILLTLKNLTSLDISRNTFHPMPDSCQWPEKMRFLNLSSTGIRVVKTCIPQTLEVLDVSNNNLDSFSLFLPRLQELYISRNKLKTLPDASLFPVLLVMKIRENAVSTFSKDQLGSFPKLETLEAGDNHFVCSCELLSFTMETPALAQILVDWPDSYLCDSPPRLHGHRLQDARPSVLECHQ

[2] = molecular target: T2, human TLR9ect (Homo sapiens, UniProt Q9NR96); test: SPR biosensor analysis of human TLR9ect binding to CpG-DNA 2006; conditions: non-CpG-DNA 2006GC as control
T2 construct: hTLR9ect (aa 1-815); made in house
T2 sequence (Q9NR96 26-815): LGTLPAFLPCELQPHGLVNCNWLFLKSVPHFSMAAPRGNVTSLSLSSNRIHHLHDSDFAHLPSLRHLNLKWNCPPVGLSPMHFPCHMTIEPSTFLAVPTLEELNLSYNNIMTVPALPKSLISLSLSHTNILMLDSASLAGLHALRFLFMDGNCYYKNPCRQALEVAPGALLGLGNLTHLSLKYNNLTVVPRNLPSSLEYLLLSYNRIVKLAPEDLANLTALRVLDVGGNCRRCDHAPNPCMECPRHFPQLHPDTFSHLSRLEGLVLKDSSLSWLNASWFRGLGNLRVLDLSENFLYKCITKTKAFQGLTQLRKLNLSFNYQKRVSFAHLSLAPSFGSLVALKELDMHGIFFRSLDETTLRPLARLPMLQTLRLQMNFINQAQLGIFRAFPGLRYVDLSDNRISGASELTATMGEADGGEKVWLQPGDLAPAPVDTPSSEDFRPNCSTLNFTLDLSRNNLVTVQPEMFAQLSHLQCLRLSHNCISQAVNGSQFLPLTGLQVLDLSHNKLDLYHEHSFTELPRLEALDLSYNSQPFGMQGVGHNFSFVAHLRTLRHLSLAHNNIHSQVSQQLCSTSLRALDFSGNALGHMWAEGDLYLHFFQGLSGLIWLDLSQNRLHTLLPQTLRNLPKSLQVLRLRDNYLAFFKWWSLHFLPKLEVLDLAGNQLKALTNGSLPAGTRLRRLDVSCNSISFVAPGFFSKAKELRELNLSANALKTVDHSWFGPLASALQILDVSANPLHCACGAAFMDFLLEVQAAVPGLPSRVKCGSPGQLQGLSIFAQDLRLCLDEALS
Description: (§1) Protein. Recombinant fusion proteins consisting of the extracellular domain of Toll-like receptors mTLR9ect (aa 1-816), mTLR9ect-mut (see below) (aa 1-816), hTLR9ect (aa 1-815) and mTLR2ect (aa 1-587) fused to human IgG1-Fc were constructed by amplifying the corresponding extracellular domain and ligating the fragment in frame into a pcDNA3.1(−) (Invitrogen, Netherlands) vector containing the coding sequence for human IgG1-Fc. Fusion proteins were stably expressed in HEK 293 cells and purified from cell lysates by protein A affinity chromatography.
SPR biosensor analysis. Real-time binding of TLR9 or TLR2 was measured by surface plasmon resonance biosensor technology using the BiaCore X system (Uppsala, Sweden). For analysis of TLR9 and TLR2 interaction, biotinylated CpG-DNA and non-CpG-DNA, or biotinylated Pam3CysK4 and PHCK4, respectively, were loaded in running buffer (50 mM MES, 150 mM NaCl, 1 mM MgCl2 at pH 6.5) on SA chips precoated with streptavidin (Biacore AB, Uppsala, Sweden). Non-CpG-DNA or PHCK4 (Wiesmuller K H et al. (1989) Vaccine 7:29-33) served as reference for CpG-DNA and Pam3CysK4 interaction (structure or sequence in Table 1). […] Binding was measured at 25° C. for 750 s (delay time 300 s). […] Sensorgrams were recorded and kinetic data were calculated by the BiaCore Evaluation program (Biacore, version 3.0.1). […]

[3] = molecular target: T3, mTLR9ect (extracellular domain of murine TLR9 fused to human IgG1-Fc) (Mus musculus, UniProt Q9EQU3); test: SPR biosensor analysis of mTLR9ect binding to immobilized CpG-DNA
T3 construct: mTLR9ect (aa 1-816); made in house
T3 sequence (Q9EQU3 26-816): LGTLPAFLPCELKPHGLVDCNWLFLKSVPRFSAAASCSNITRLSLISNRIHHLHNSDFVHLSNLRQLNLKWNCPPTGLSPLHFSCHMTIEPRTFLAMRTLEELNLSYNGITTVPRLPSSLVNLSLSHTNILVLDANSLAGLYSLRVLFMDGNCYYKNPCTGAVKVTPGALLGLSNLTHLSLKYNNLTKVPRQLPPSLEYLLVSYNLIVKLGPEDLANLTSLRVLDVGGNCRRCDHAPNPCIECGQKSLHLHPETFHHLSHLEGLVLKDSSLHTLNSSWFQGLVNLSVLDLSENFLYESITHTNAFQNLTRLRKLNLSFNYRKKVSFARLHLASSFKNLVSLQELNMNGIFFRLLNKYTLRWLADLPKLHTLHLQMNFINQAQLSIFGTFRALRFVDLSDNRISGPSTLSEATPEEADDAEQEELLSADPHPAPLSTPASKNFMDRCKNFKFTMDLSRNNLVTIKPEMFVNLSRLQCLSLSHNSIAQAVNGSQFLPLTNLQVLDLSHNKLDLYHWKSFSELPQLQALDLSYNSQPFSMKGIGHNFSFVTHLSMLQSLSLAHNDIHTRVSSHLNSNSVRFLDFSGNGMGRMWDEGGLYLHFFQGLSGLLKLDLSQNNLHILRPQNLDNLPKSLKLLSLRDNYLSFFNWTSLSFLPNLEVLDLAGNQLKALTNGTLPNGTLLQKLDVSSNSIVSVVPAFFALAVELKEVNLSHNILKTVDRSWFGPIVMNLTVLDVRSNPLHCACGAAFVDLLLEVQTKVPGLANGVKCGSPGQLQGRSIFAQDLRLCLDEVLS
Description: as §1
(§2) SPR biosensor analysis. Real-time binding of TLR9 or TLR2 was measured by surface plasmon resonance biosensor technology using the BiaCore X system (Uppsala, Sweden). For analysis of TLR9 and TLR2 interaction, biotinylated CpG-DNA and non-CpG-DNA, or biotinylated Pam3CysK4 and PHCK4, respectively, were loaded in running buffer (50 mM MES, 150 mM NaCl, 1 mM MgCl2 at pH 6.5) on SA chips precoated with streptavidin (Biacore AB, Uppsala, Sweden). Non-CpG-DNA or PHCK4 (Wiesmuller K H et al. (1989) Vaccine 7:29-33) served as reference for CpG-DNA and Pam3CysK4 interaction (structure or sequence in Table 1). […] TLR proteins were introduced at 200 nM or as indicated in 40 μl running buffer at a flow rate of 10 μl/min. Binding was measured at 25° C. for 750 s (delay time 300 s). […] Sensorgrams were recorded and kinetic data were calculated by the BiaCore Evaluation program (Biacore, version 3.0.1). Regeneration of the chip was performed by injection of 10 μl 50 mM NaOH, 1 M NaCl and extensive re-equilibration.
For detailed analysis of TLR9-CpG-DNA interaction, surface plasmon resonance (SPR) biosensor based technology was used with CpG- and non-CpG-DNA immobilized onto separate flow cells of a streptavidin-coated chip. Under these settings non-CpG-DNA served as reference for specific binding (see Methods). Binding of mTLR9ect to DNA was CpG-sequence-specific and increased in a dose-dependent manner. […] Using the 1:1 binding model of the BioEvaluation software as fitting algorithm and on the basis of four different mTLR9ect concentrations ranging from 50 to 300 nM, a dissociation constant (Kd) of 200 nM was obtained with low chi-squared residuals (4,76). […] Weber AN et al. (2003) Nat. Immunol. 4:794-800. Furthermore the concentration of CpG-DNA 1668 (SEQ ID NO:1) for half-maximal activation of murine TLR9 has been recently calculated as 70 nM which correlates well with the KD obtained here. Bauer S et al. (2001) Proc. Natl. Acad. Sci. U.S.A. 98:9237-9242. […] This difference in affinity correlates with the observed species-specific variance in CpG-motif recognition, as well as activation potential. Bauer S et al. (2001) Proc. Natl. Acad. Sci. U.S.A. 98:9237-9242.

[4] = molecular target: T4, mTLR9ect (Mus musculus, UniProt Q9EQU3); test: UV-crosslinking of mTLR9ect with 32P-labeled DNA and SDS-PAGE; type: binding, murine; conditions: SDS-PAGE, complex at 150 kDa
T4 construct: mTLR9ect (aa 1-816); made in house
T4 sequence (Q9EQU3 26-816): T3 sequence (Q9EQU3 26-816)
Description: FIG. 1B is an image of an SDS-PAGE gel depicting purified proteins from FIG. 1A UV-crosslinked with ^32P-labeled CpG- or non-CpG-DNA, separated by SDS-PAGE, and autoradiographed. TLR9 and free DNA are highlighted.
Bauer S et al. (2001) Proc. Natl. Acad. Sci. U.S.A. 98:9237-9242. To assess binding of TLR9 to CpG-DNA, a recombinant fusion protein consisting of the extracellular domain of murine TLR9 and human IgG 1-Fc (mTLR9ect) was constructed. The extracellular domain of murine TLR2 also fused to IgG1-Fc (mTLR2ect) served as control. Proteins were expressed in HEK 293 cells and purified via protein A affinity chromatography (FIG. 1A). Under denaturing and non-reducing conditions mTLR9ect and mTLR2ect are approximately 10% in a monomeric and 90% in a dimeric form. Dimerization of the proteins is probably mediated by the IgG 1-Fc fusion partner which forms disulfide bonds (FIG. 1A). Initially, binding of mTLR9ect to radiolabeled DNA was determined by UV-crosslinking and subsequent SDS-PAGE.

[5] = molecular target: T5, TLR9-CpG-DNA interaction (Mus musculus, UniProt Q9EQU3); test: SPR biosensor analysis of inhibitors on TLR9-CpG-DNA interaction; type: binding, murine; conditions: for inhibition of binding of TLR9 to CpG-DNA: SPR, 200 nM TLR9, immobilized CpG-DNA 1668
T5 construct: mTLR9ect (aa 1-816); made in house
T5 sequence (Q9EQU3 26-816): T3 sequence (Q9EQU3 26-816)
Procedure: Biotinylated CpG-DNA 1668 (SEQ ID NO:1) and non-CpG-DNA 1668GC (SEQ ID NO:3) were immobilized on streptavidin sensor chip flow cells 1 and 2, respectively.
FIG. 2B is a graph depicting SPR biosensor analysis of quinoquine (QC) on TLR9-PAMP interaction. Biotinylated CpG-DNA 1668 (SEQ ID NO:1) and non-CpG-DNA 1668GC (SEQ ID NO:3) were immobilized on streptavidin sensor chip flow cells 1 and 2, respectively. 200 nM TLR9 and indicated concentrations of quinoquine were injected and sensorgrams recorded.
as §2

[6] = tested on: murine TLR9; test: NF-κB luciferase assay, HEK 293 cells transfected with murine TLR9; type: cell-based; conditions: TLR9-transfected HEK 293 cells, 1 μM CpG-DNA, inhibitor added 15 min prior to stimulation
Procedure: Activation is expressed as fold induction compared to no stimulation. NF-κB luciferase assay. For monitoring transient NF-κB activation, 3×10^6 HEK 293 cells were electroporated at 200 volt and 950 μF with 20 ng of a NF-κB luciferase reporter plasmid (kindly provided by Patrick Baeuerle, Munich, Germany) and 1 μg mTLR2 (kindly provided by Tularik, Inc., South San Francisco, USA), mTLR9, or mTLR9-mut expression plasmid. Cells were seeded at 10^5 cells per well and after overnight culture stimulated with 1 μM phosphorothioated CpG-DNA 1668 (SEQ ID NO:1), 1 μM non-CpG-DNA 1668GC (SEQ ID NO:3), 1 μg/ml Pam[…][…] or 1 μg/ml PHCK4 for further 8 hours. […] Stimulated cells were lysed using reporter lysis buffer (Promega, Mannheim, Germany) and lysates were assayed for luciferase activity using a Berthold luminometer (Wildbad, Germany) according to the manufacturer's instruction.

[7] = tested on: murine TLR2; test: NF-κB luciferase assay, HEK 293 cells transfected with murine TLR2; type: cell-based; conditions: TLR2-transfected HEK 293 cells, 1 μg/ml Pam3Cys

Compound	inhibition of binding of TLR9 to CpG-DNA [5]	inhibition of TLR9-driven NF-κB activation [6]	inhibition of Pam3Cys-driven cellular activation [7]	other results
S-(2,3-bis(palmitoyloxy)-(2-RS)-propyl)-N-palmitoyl-(R)-Cys-(S)-Ser-(S)-Lys(4) (Palmitoyl-C(X1)SKKKK; also: biotinylated (site not given here)) [Pam3Cys]				Binding of TLR2 to Pam3Cys [1]: specific
5′-TCGTCGTTTTGTCGTTTTGTCGTT-3′ [CpG-DNA 2006]				interaction with human TLR9ect [2]: specifically interacted
5′-TCCATGAGCTTCCTGATGCT-3′ (chemistry not given here) [non-CpG-DNA 1668GC, non-CpG control oligodeoxynucleotide]				release of bound mTLR9ect by free injected DNA ([3]; competition, free DNA added in dissociation phase): did not lead to the release; effect of pre-incubation of mTLR9ect with DNA on binding to chip-immobilized CpG-DNA ([3]; pre-incubation prior to SPR analysis): no inhibitory effect; binding of mTLR9ect to radiolabeled DNA [4]: bound only weakly
CO/C1=C\C(C)=C\[C@@H](C)[C@@H](O)[C@@H](C)C/C(C)=C/C=C/[C@H](OC)[C@@H]([C@@H](C)[C@@H](O)[C@H](C)[C@@]2(O)C[C@@H](O)[C@H](C)[C@@H](C(C)C)O2)OC1=O [bafilomycin A1]	did not influence	inhibited cell activation		
CCN(CC)CCCC(C)Nc1ccnc2cc(Cl)ccc12 (stereo not drawn) [chloroquine]	dose-dependently inhibit	dose-dependently inhibit	inhibited neither	
CCN(CC)CCCC(C)Nc1c2ccc(Cl)cc2nc2ccc(OC)cc12 (stereo not drawn) [quinacrine]	dose-dependently inhibit	dose-dependently inhibit	inhibited neither	potency in blocking TLR9-CpG-DNA interaction and cellular activation, compared with chloroquine ([5]; SPR and TLR9-transfected HEK 293 cells): more potent; inhibition of TLR2-Pam3Cys binding ([1]; 200 nM TLR2, immobilized Pam3Cys): inhibited neither
